The results in this text go back to US4636490A, “Novel peptidic derivatives inhibiting gastric secretion, process for preparing them and drugs containing them” (Sanofi, priority 1983, dated 1987).

Residues, ends and D or L forms follow the SMILES beside them. *: point of attachment. Cbz = O=C(OCc1ccccc1)*; Boc = CC(C)(C)OC(=O)*

Assay [1] deals with gastric secretion stimulated by the gastrin. Kind of assay: Antagonist effect: inhibition of gastrin (minigastrin)-stimulated acid secretion, stomach of a reperfused, anaesthetized rat. It is filed as in vivo. An excerpt: (§1) The compounds according to the invention were studied as far as their therapeutical properties are concerned. More particularly, these compounds were studied in vivo as far as their gastric secretory effect in the rat is concerned. The model chosen for measuring the secretory effect is that of the stomach of a reperfused, anaesthetized rat. The protocol followed is a modification of the one described previously by Ghosh and Schild. A male rat of Wistar strain, weighing 300 g, having fasted for 18 hours, is anaesthetized with urethane (10% solution, 1.5 ml/100 g i.p.). A tracheotomy is then made, as well as a catheterism of the vein of the penis which will allow i.v. administration of the peptides. A cannula is then placed in the oesophagus up to the cardiac orifice and a second cannula in the duodenum (by a duodenotomy made about 3 cm from the pylorus) up to the antral gastric zone. A propionic-succinic solute (pH 5.5) which gives a linear variation of the pH as a function of the concentration of H^+ ions is used for perfusing the stomach in open or closed circuit with a flow rate of 3 ml/min. The body temperature, as well as that of the solute, is monitored and maintained at 30° C. The acid secretion of the stomach will bring about a variation in pH detected by the glass half-cell and recorded as a function of time. After stabilization of the basal secretion, gastrin is injected by the intravenous route, either in perfusion or in a single injection. The response is recorded as a function of time and the quantity of acid secretion is measured on the recording by difference with the basal secretion. The same experiment is carried out either by injecting the peptide to be studied i.v. on a plateau of acid secretion stimulated by the gastrin, or by associating the peptide with the stimulant in variable ratios of concentration. Finally, the peptide is administered alone at different doses in order to examine its agonist effect.

A further assay concerns gastric secretion. Description: Agonist effect: gastric secretory effect of the peptide administered alone i.v., stomach of a reperfused, anaesthetized rat. Format: in vivo. The conditions noted are these: anaesthetized male Wistar rat.
Source text: as §1

The mark [2] stands for this setting: agonist minigastrin 0.6 μg/kg (single), dose of antagonist 1.5 mg/kg i.v.

On to `CSCC[C@H](NC(=O)[C@H](Cc1c[nH]c2ccccc12)NC(=O)CNC(=O)[C@H](Cc1ccc(O)cc1)NC(=O)OC(C)(C)C)C(=O)N[C@@H](CC(=O)O)C(N)=O` [Example 4, Boc--Tyr--Gly--Trp--Met--Asp--NH2] (Boc-YGWMD-NH2), for which the “Inhibiting effect (%)” value in assay [1] (agonist minigastrin 0.6 μg/kg (single), dose of antagonist 1.2 mg/kg i.v.) is on record as 50.4%. Besides, the “Secretary effect (40 mins.)” value in the assay with gastric secretion (dose 5000 μg/kg) was 0.1 μmol H^+.
For the compound `CSCC[C@H](NC(=O)[C@H](Cc1c[nH]c2ccccc12)NC(=O)CNC(=O)[C@H](Cc1ccc(O)cc1)NC(=O)[C@H](C)NC(=O)[C@H](CCC(=O)O)NC(=O)OCc1ccccc1)C(=O)N[C@@H](CC(=O)O)C(N)=O` [Example 5, Z--Glu--Ala--Tyr--Gly--Trp--Met--Asp--NH2] (Cbz-EAYGWMD-NH2), the “Inhibiting effect (%)” value in assay [1] (setting [2]) was found to be 50%. For the same compound, the “Secretary effect (40 mins.)” value in the assay on gastric secretion (dose 10000 μg/kg) is 0 μmol H^+.
Regarding “Z--Tyr(HSO3)--Met--Gly--Trp--Met--Asp--NH2 [Example 3]”, the “Inhibiting effect (%)” value in assay [1] (setting [2]) worked out at 47%; in assay [1] (agonist minigastrin 1.5 μg/kg/hr (perfusion), dose of antagonist 1.5 mg/kg i.v.) it was 47.4%. Also, in the assay on gastric secretion (dose 1000 μg/kg), the “Secretary effect (40 mins.)” value is listed as 0.15 μmol H^+.
